Results published in patent US20090048301A1 (IMCLONE SYSTEMS INCORPORATED, priority 2003, published 2009).

System: bovine tubulin
Experiment: In vitro tubulin polymerization assay (turbidity at 340 nm)
Format: biochemical
Conditions: 10 μM compound, 30 minute data point, vs 1% DMSO control
Protocol: Briefly, tubulin polymerization is a kinetic process that is temperature-dependent and requires GTP and was performed as follows. Soluble tubulin dimers polymerize into microtubules upon warming, and polymerization in vitro correlates with an increase in turbidity (measured at 340 nm). Lyophilized bovine tubulin (HTS Tubulin—97% tubulin, <3% MAPs—Cytoskeleton Inc.) was ressuspended in G-PEM buffer (80 mM PIPES pH 7, 1 mM EGTA, 1 mM MgCl2, 1 mM GTP, 5% glycerol) to a final concentration of 3 mg/ml and kept at 4° C. Compounds in 100× stock solutions in DMSO were dotted to pre-warmed 96-well plates (Corning Costar 3696), the plates were transferred to a 37° C. plate reader (SPECTRAmax Plus, Molecular Devices), cold tubulin was added to the wells, and the plates were shaken for mixing. The absorbance at 340 nm was determined at one minute intervals for 30 minutes. Kinetic curves with 30 points each were collected for each compound, and the dynamic range was between 0 and 0.4 OD units. The percentage inhibition values were calculated using the 30 minute data point and based on control samples (treated with 1% DMSO only). The assay is a modified version of the HTS kit sold by Cytoskeleton (1830 S. Acoma St., Denver, Colo.), adapted to maximize throughput and reduce time, without reduction in dynamic range or sensitivity, while retaining the ability to detect compounds that inhibit or enhance tubulin polymerization.
Tubulin polymerization is a kinetic process that is temperature-dependent and requires GTP. Soluble tubulin dimers polymerize into microtubules upon warming, and polymerization in vitro correlates with an increase in turbidity (measured at 340 nm). Liophilized bovine tubulin (HTS Tubulin—97% tubulin, <3% MAPs—Cytoskeleton Inc.) was ressuspended in G-PEM buffer (80 mM PIPES pH 7, 1 mM EGTA, 1 mM MgCl2, 1 mM GTP, 5% glycerol) to a final concentration of 3 mg/ml and kept at 4° C. Compounds in 100× stock solutions in DMSO were dotted to pre-warmed 96-well plates (Corning Costar 3696), the plates were immediately transferred to a 37° C. plate reader (SPECTRAmax Plus, Molecular Devices), cold tubulin was added to the wells, plates were shaken for mixing, and absorbance at 340 nm was read every minute for 30 minutes. Kinetic curves with 30 points each were collected for each compound, and the dynamic range was between 0 and 0.4 OD units. Percentage inhibition values were calculated using the 30 minute data point, based on control samples (treated with 1% DMSO only). This assay is a modified version of the HTS kit sold by Cytoskeleton, adapted to maximize throughput and reduce time, without reduction in dynamic range or sensitivity, while retaining the ability to detect compounds that inhibit or enhance tubulin polymerization.

Question: Which “Tubulin Assay: percent inhibition at 10 μM based on 30 minute data” value (“Tubulin Assay: percent inhibition” for short) does the source give for COc1ccc(Nc2nnc(-c3cccnc3Nc3ccc4cn[nH]c4c3)[nH]2)cc1 [Compound 19, (1H-Indazol-6-yl)-{3-[5-(4-methoxy-phenylamino)-4H-[1,2,4]triazol-3-yl]-pyridin-2-yl}-amine] here?
Answer: 20%

Question: How did the “Tubulin Assay: percent inhibition” value turn out when COc1ccc(Nc2nnc(-c3cccnc3Nc3ccc4cn[nH]c4c3)[nH]2)c(OC)c1 [Compound 22, {3-[5-(2,4-Dimethoxy-phenylamino)-4H-[1,2,4]triazol-3-yl]-pyridin-2-yl}-(1H-indazol-6-yl)-amine] was run?
Answer: 24%

Question: Which “Tubulin Assay: percent inhibition” value does the source give for COc1cccc(Nc2nnc(-c3cccnc3NCc3cc(OC)cc(OC)c3)[nH]2)c1 [Compound 23, (3,5-Dimethoxy-benzyl)-{3-[5-(3-methoxy-phenylamino)-4H-[1,2,4]triazol-3-yl]-pyridin-2-yl}-amine] here?
Answer: 22%

Question: Which “Tubulin Assay: percent inhibition” value does the source give for COc1cc(CNc2ncccc2-c2nnc(Nc3ccc(OC)cc3OC)[nH]2)cc(OC)c1 [Compound 24, (3,5-Dimethoxy-benzyl)-{3-[5-(2,4-dimethoxy-phenylamino)-4H-[1,2,4]triazol-3-yl]-pyridin-2-yl}-amine] here?
Answer: 20%

Question: With COc1ccc(Nc2nnc(-c3cccnc3NCc3cccnc3)[nH]2)cc1 [Compound 26, {3-[5-(4-Methoxy-phenylamino)-4H-[1,2,4]triazol-3-yl]-pyridin-2-yl}-pyridin-3-ylmethyl-amine] as the compound, how does the “Tubulin Assay: percent inhibition” value read?
Answer: 20%

Question: How did the “Tubulin Assay: percent inhibition” value turn out when COc1ccc(Nc2nnc(-c3cccnc3NCc3cccnc3)[nH]2)c(OC)c1 [Compound 27, {3-[5-(2,4-Dimethoxy-phenylamino)-4H-[1,2,4]triazol-3-yl]-pyridin-2-yl}-pyridin-3-ylmethyl-amine] was run?
Answer: 20%

Question: With COc1ccc(OC)c(Nc2nnc(-c3cccnc3NCc3cccnc3)[nH]2)c1 [Compound 28, {3-[5-(2,5-Dimethoxy-phenylamino)-4H-[1,2,4]triazol-3-yl]-pyridin-2-yl}-pyridin-3-ylmethyl-amine] as the compound, how does the “Tubulin Assay: percent inhibition” value read?
Answer: 22%

Question: Which “Tubulin Assay: percent inhibition” value does the source give for COc1cccc(Nc2nnc(-c3cccnc3NCCCn3ccnc3)[nH]2)c1 [Compound 29, (3-Imidazol-1-yl-propyl)-{3-[5-(3-methoxy-phenylamino)-4H-[1,2,4]triazol-3-yl]-pyridin-2-yl}-amine] here?
Answer: 28%

Question: How did the “Tubulin Assay: percent inhibition” value turn out when c1cnc(NCc2ccc3c(c2)OCCO3)c(-c2nnc(Nc3ccc4c(c3)OCO4)[nH]2)c1 [Compound 34, {3-[5-(Benzo[1,3]dioxol-5-ylamino)-4H-[1,2,4]triazol-3-yl]-pyridin-2-yl}-(2,3-dihydro-benzo[1,4]dioxin-6-ylmethyl)-amine] was run?
Answer: 69%

Question: COc1cccc(Nc2nnc(-c3cccnc3NCc3ccc4c(c3)OCCO4)[nH]2)c1 [Compound 35, (2,3-Dihydro-benzo[1,4]dioxin-6-ylmethyl)-{3-[5-(3-methoxy-phenylamino)-4H-[1,2,4]triazol-3-yl]-pyridin-2-yl}-amine] was tested. Which “Tubulin Assay: percent inhibition” value did it give?
Answer: 66%

Question: For c1cnc(NCc2ccc3c(c2)CCO3)c(-c2nnc(Nc3ccc4c(c3)OCO4)[nH]2)c1 [Compound 36, {3-[5-(Benzo[1,3]dioxol-5-ylamino)-4H-[1,2,4]triazol-3-yl]-pyridin-2-yl}-(2,3-dihydro-benzofuran-5-ylmethyl)-amine], which “Tubulin Assay: percent inhibition” value is on record?
Answer: 67%

Question: Which “Tubulin Assay: percent inhibition” value does the source give for COc1cccc(Nc2nnc(-c3cccnc3NCc3ccc4c(c3)CCO4)[nH]2)c1 [Compound 37, (2,3-Dihydro-benzofuran-5-ylmethyl)-{3-[5-(3-methoxy-phenylamino)-4H-[1,2,4]triazol-3-yl]-pyridin-2-yl}-amine] here?
Answer: 91%
